In the RepoRT retention time repository (doi:10.1007/s00216-021-03828-0):

How the values were obtained:
Conditions in all cases: stereoisomer not certain
[1] = RP, Merck Supelco Ascentis Express C18, 100 × 2.1 mm, 2 µm, 40 °C, 0.25 mL/min, estimated dead time 0.88 min; A: water + 0.1% formic acid, pH 3; B: acetonitrile + 0.1% formic acid, pH 3; gradient (min/%B) 0/5 2/5 17/99.9 20/99.9
[2] = RP, Merck Supelco Ascentis Express C18, 100 × 2.1 mm, 2 µm, 40 °C, 0.2 mL/min, estimated dead time 1.1 min; A: water + 0.1% formic acid, pH 3; B: acetonitrile + 0.1% formic acid, pH 3; gradient (min/%B) 0/5 2/5 17/99.9 20/99.9
[3] = RP, Merck Supelco Ascentis Express C18, 100 × 2.1 mm, 2 µm, 40 °C, 0.35 mL/min, estimated dead time 0.63 min; A: water + 0.1% formic acid, pH 3; B: acetonitrile + 0.1% formic acid, pH 3; gradient (min/%B) 0/5 2/5 17/99.9 20/99.9
[4] = RP, Merck Supelco Ascentis Express C18, 100 × 2.1 mm, 2 µm, 40 °C, 0.2 mL/min, estimated dead time 1.1 min; A: water + 0.1% formic acid, pH 3; B: acetonitrile + 0.1% formic acid, pH 3; gradient (min/%B) 0/5 2/5 17/99.9 20/99.9; remark: listed apart in the source
[5] = RP, Merck Supelco Ascentis Express C18, 100 × 2.1 mm, 2 µm, 40 °C, 0.4 mL/min, estimated dead time 0.55 min; A: water + 0.1% formic acid, pH 3; B: acetonitrile + 0.1% formic acid, pH 3; gradient (min/%B) 0/5 2/5 17/99.9 20/99.9
[6] = RP, Merck Supelco Ascentis Express C18, 100 × 2.1 mm, 2 µm, 39 °C, 0.3 mL/min, estimated dead time 0.73 min; A: water + 0.1% formic acid, pH 3; B: acetonitrile + 0.1% formic acid, pH 3; gradient (min/%B) 0/5 2/5 17/99.9 20/99.9
[7] = RP, Merck Supelco Ascentis Express C18, 100 × 2.1 mm, 2 µm, 40 °C, 0.4 mL/min, estimated dead time 0.55 min; A: water + 0.1% formic acid, pH 3; B: acetonitrile + 0.1% formic acid, pH 3; gradient (min/%B) 0/5 2/5 17/99.9 20/99.9; remark: listed apart in the source

| SMILES | LC retention time [1] | LC retention time [2] | LC retention time [3] | LC retention time [4] | LC retention time [5] | LC retention time [6] | LC retention time [7] |
| --- | --- | --- | --- | --- | --- | --- | --- |
| O=C(O)c1ccc2ccccc2c1O [1-HYDROXY-2-NAPHTHOATE] | 9.77 min | 10.4 min | 8.9 min | 10.4 min | 8.56 min | 9.28 min | 8.61 min |
| Cn1cnc2c(ncn2C2OC(CO)C(O)C2O)c1=N (stereo not given) [1-METHYLADENOSINE] | 1.58 min | 2.01 min | 1.16 min | 2.01 min | 0.993 min | 1.31 min | 1.01 min |
| CC(=O)c1ccc(O)cc1O [2',4'-DIHYDROXYACETOPHENONE] | 6.34 min | 7 min | 5.5 min | 7.01 min | 5.14 min | 5.94 min | 5.17 min |
| O=C(O)c1cccc(O)c1O [2,3-DIHYDROXYBENZOATE] | 2.44 min | 5.32 min | 3.88 min | 5.33 min | 1.52 min | 2.06 min | 1.53 min |
| O=c1[nH]c(=O)c2nccnc2[nH]1 [2,4-DIHYDROXYPTERIDINE] | 1.13 min | 1.41 min | 0.783 min | 1.41 min | 0.687 min | 0.967 min | 0.7 min |
| O=C(O)c1cc(O)ccc1O [2,5-DIHYDROXYBENZOATE] | 4.02 min | 4.65 min | 3.04 min | 4.65 min | 2.63 min | 3.5 min | 2.66 min |
| CSCCC(O)C(=O)O (stereo not given) [2-HYDROXY-4-(METHYLTHIO)BUTANOATE] | 3 min | 3.75 min | 2.15 min | 3.75 min | 1.86 min | 2.49 min | 1.9 min |
| O=C(O)Cc1ccccc1O [2-HYDROXYPHENYLACETATE] | 4.19 min | 4.83 min | 3.28 min | 4.85 min | 2.88 min | 3.67 min | 2.95 min |
| O=C(O)c1ccc(O)c(O)c1 [3,4-DIHYDROXYBENZOATE] | 2.44 min | 3.06 min | 1.76 min | 3.05 min | 1.52 min | 2.06 min | 1.53 min |
| O=C(O)Cc1ccc(O)c(O)c1 [3,4-DIHYDROXYPHENYLACETATE] | 3.22 min | 3.92 min | 2.32 min | 3.97 min | 2.02 min | 2.67 min | 1.95 min |
| N[C@@H](Cc1cc(I)c(Oc2ccc(O)cc2)c(I)c1)C(=O)O [3,5-DIIODO-L-THYRONINE] | 6.77 min | 7.22 min | 6.19 min | 7.21 min | 5.98 min | 6.45 min | 6.02 min |
| N[C@@H](Cc1cc(I)c(O)c(I)c1)C(=O)O [3,5-DIIODO-L-TYROSINE] | 4.89 min | 5.37 min | 4.26 min | 5.38 min | 4.03 min | 4.54 min | 4.07 min |
| O=C(O)CCc1ccccc1O [3-(2-HYDROXYPHENYL)PROPANOATE] | 6.14 min | 12.1 min | 5.36 min | 6.72 min | 5.08 min | 5.72 min | 5.13 min |
| CC(O)(CC(=O)O)CC(=O)O [3-HYDROXYMETHYLGLUTARATE] | 1.26 min | 1.6 min | 0.893 min | 1.59 min | 0.76 min | 1.06 min | 0.773 min |
| O=C(O)Cc1cccc(O)c1 [3-HYDROXYPHENYLACETATE] | 6.34 min | 7 min | 5.5 min | 7.01 min | 5.14 min | 5.94 min | 5.17 min |
